In ChEMBL document CHEMBL3797151, “Design, synthesis, assessment, and molecular docking of novel pyrrolopyrimidine (7-deazapurine) derivatives as non-nucleoside hepatitis C virus NS5B polymerase inhibitors” (Bioorg Med Chem, 2016) one finds CC50 and IC50 data, which are given here for 21 compounds.

A short description of data set [1]: Cytotoxicity against human Huh7.5 cells infected with HCV genotype 4a assessed as morphological changes after 72 hrs by inverted light microscopy. The data set is classed as cell-based, Huh-7.
Data set [2] in a line: Cytotoxicity against human Huh7.5 cells infected with HCV genotype 4a assessed as cell viability after 72 hrs by trypan blue dye-based phase contrast microscopy. Conditions: Huh-7, 72 h.
For a further data set, the system named is Hepatitis C virus. Briefly: Antiviral activity against HCV genotype 4a ED-43/SG-feo (VYG) replicons infected in human Huh7.5 cells assessed as inhibition of viral replication after 72 hrs by immunofluorescence assay. The data set is classed as functional, organism-based, Hepacivirus hominis. Particulars: Huh-7, 72 h.

Bounds are passed on as bounds.

Take `CC(=O)Nc1c(C#N)c(-c2ccccc2)c(-c2ccccc2)n1C1CCCCC1`: the CC50 at 72 h in data set [1] stood at 183 µM. For the same compound, the CC50 in data set [2] amounted to 183 µM. Also, in the data set with Hepatitis C virus, the IC50 is more than 150 µM.

On to `CC(=O)Nc1c(C#N)c(-c2ccccc2)c(-c2ccccc2)n1-c1cccc(Cl)c1`, for which the CC50 at 72 h in data set [1] was 146 µM. In addition, in data set [2], the half-maximal cytotoxic concentration (CC50) was 146 µM. For the same compound, the concentration for half-maximal inhibition (IC50) in the data set on Hepatitis C virus is more than 150 µM.

`Cc1nc2c(c(-c3ccccc3)c(-c3ccccc3)n2-c2cccc(Cl)c2)c(=O)[nH]1`: in data set [1], the CC50 at 72 h is 97 µM. In data set [2], the CC50 came to 97 µM. The 50% inhibitory concentration (IC50) with Hepatitis C virus is more than 150 µM.

`N#Cc1c(-c2ccccc2)c(-c2ccccc2)n(-c2cccc(Cl)c2)c1N`: the 50% cytotoxic concentration (CC50) at 72 h in data set [1] was 189 µM. Besides, in data set [2], the 50% cytotoxic concentration (CC50) came to 189 µM. For the same compound, the 50% inhibitory concentration (IC50) with Hepatitis C virus was more than 150 µM.

Regarding `N#Cc1c(-c2ccccc2)c(-c2ccccc2)n(-c2ccc(Cl)cc2)c1N`, the CC50 at 72 h in data set [1] was determined as 189 µM. For the same compound, in data set [2], the CC50 amounted to 189 µM. Further, in the data set on Hepatitis C virus, the IC50 is more than 150 µM.

For the compound `Cc1nc2c(c(-c3ccccc3)c(-c3ccccc3)n2-c2ccc(Cl)cc2)c(=O)[nH]1`, in data set [1], the 50% cytotoxic concentration (CC50) at 72 h was determined as 97 µM. Also, the cytotoxic concentration (CC50) in data set [2] came to 97 µM. For the same compound, in the data set with Hepatitis C virus, the IC50 was more than 150 µM.

Take `O=c1[nH]cnc2c1c(-c1ccccc1)c(-c1ccccc1)n2-c1cccc(Cl)c1`: the CC50 at 72 h in data set [1] was 151 µM. The half-maximal cytotoxic concentration (CC50) in data set [2] worked out at 151 µM. The IC50 in the data set on Hepatitis C virus was more than 150 µM.

For the compound `CC(=O)Nc1c(C#N)c(-c2ccccc2)c(-c2ccccc2)n1-c1ccc(Cl)cc1`, the CC50 at 72 h in data set [1] was found to be 146 µM. The CC50 in data set [2] was determined as 146 µM. Moreover, in the data set on Hepatitis C virus, the 50% inhibitory concentration (IC50) is more than 150 µM.

For the compound `S=c1[nH]cnc2c1c(-c1ccccc1)c(-c1ccccc1)n2C1CCCCC1`, the cytotoxic concentration (CC50) at 72 h in data set [1] was 130 µM. Moreover, the CC50 in data set [2] was found to be 130 µM. Besides, the IC50 in the data set with Hepatitis C virus is more than 150 µM.

With `Cc1cccc(Nc2ncnc3c2c(-c2ccccc2)c(-c2ccccc2)n3C2CCCCC2)c1`, the CC50 at 72 h in data set [1] was found to be 131 µM. Moreover, the half-maximal cytotoxic concentration (CC50) in data set [2] was determined as 131 µM. In the data set on Hepatitis C virus, the concentration for half-maximal inhibition (IC50) was more than 150 µM.

Regarding `Clc1cccc(-n2c(-c3ccccc3)c(-c3ccccc3)c3c(Nc4ccccc4)ncnc32)c1`, the CC50 at 72 h in data set [1] amounted to 148 µM. The 50% cytotoxic concentration (CC50) in data set [2] worked out at 148 µM. In addition, the IC50 in the data set on Hepatitis C virus is more than 150 µM.

For `c1ccc(Nc2ncnc3c2c(-c2ccccc2)c(-c2ccccc2)n3C2CCCCC2)cc1`, in data set [1], the half-maximal cytotoxic concentration (CC50) at 72 h is 158 µM. For the same compound, in data set [2], the half-maximal cytotoxic concentration (CC50) was 158 µM. Further, the 50% inhibitory concentration (IC50) in the data set with Hepatitis C virus is more than 150 µM.

Turning to `N#Cc1c(-c2ccccc2)c(-c2ccccc2)n(C2CCCCC2)c1N`, the CC50 at 72 h in data set [1] came to 176 µM. Also, the CC50 in data set [2] turned out to be 176 µM. The half-inhibitory concentration (IC50) in the data set with Hepatitis C virus was more than 150 µM.

As to `Cc1ccccc1Nc1ncnc2c1c(-c1ccccc1)c(-c1ccccc1)n2C1CCCCC1`, the CC50 at 72 h in data set [1] came out at 153 µM. In addition, the CC50 in data set [2] turned out to be 153 µM. In addition, the IC50 in the data set with Hepatitis C virus is more than 150 µM.

As to `S=c1[nH]cnc2c1c(-c1ccccc1)c(-c1ccccc1)n2-c1ccc(Cl)cc1`, the half-maximal cytotoxic concentration (CC50) at 72 h in data set [1] worked out at 121 µM. For the same compound, the CC50 in data set [2] amounted to 121 µM. The IC50 in the data set with Hepatitis C virus is more than 150 µM.

As to `Cc1nc2c(c(-c3ccccc3)c(-c3ccccc3)n2C2CCCCC2)c(=O)[nH]1`, the CC50 at 72 h in data set [1] came to 130 µM. Also, in data set [2], the half-maximal cytotoxic concentration (CC50) was 130 µM. For the same compound, in the data set on Hepatitis C virus, the concentration for half-maximal inhibition (IC50) is more than 150 µM.

Take `S=c1[nH]cnc2c1c(-c1ccccc1)c(-c1ccccc1)n2-c1cccc(Cl)c1`: the CC50 at 72 h in data set [1] came out at 145 µM. Further, in data set [2], the CC50 came out at 145 µM. Moreover, the IC50 in the data set on Hepatitis C virus is more than 150 µM.

Regarding `O=c1[nH]cnc2c1c(-c1ccccc1)c(-c1ccccc1)n2C1CCCCC1`, the CC50 at 72 h in data set [1] is 190 µM. The half-maximal cytotoxic concentration (CC50) in data set [2] was 190 µM. Further, in the data set with Hepatitis C virus, the IC50 was more than 150 µM.

In the case of `O=c1[nH]cnc2c1c(-c1ccccc1)c(-c1ccccc1)n2-c1ccc(Cl)cc1`, in data set [1], the CC50 at 72 h turned out to be 151 µM. The 50% cytotoxic concentration (CC50) in data set [2] is 151 µM. Moreover, in the data set with Hepatitis C virus, the half-maximal inhibitory concentration (IC50) is more than 150 µM.

In the case of `Clc1ncnc2c1c(-c1ccccc1)c(-c1ccccc1)n2C1CCCCC1`, the CC50 at 72 h in data set [1] was 155 µM. In data set [2], the half-maximal cytotoxic concentration (CC50) was 155 µM. Moreover, the IC50 in the data set with Hepatitis C virus is more than 150 µM.

As for `Cc1ccc(Nc2ncnc3c2c(-c2ccccc2)c(-c2ccccc2)n3C2CCCCC2)cc1`, in data set [1], the CC50 at 72 h is 153 µM. Also, the CC50 in data set [2] is 153 µM. Further, in the data set with Hepatitis C virus, the IC50 is more than 150 µM.
